These results are taken from BindingDB's records for doi:10.1002/cbic.201402673 (University of Groningen, 2015).

The term Kd denotes a measure of binding affinity in units of concentration. Low readings indicate higher affinity, high ones lower affinity.

In the test the target is T1, Thiamine transporter ThiT (Lactococcus lactis subsp. cremoris (strain MG1363), UniProt A2RI47).
T1 sequence (A2RI47 whole entry): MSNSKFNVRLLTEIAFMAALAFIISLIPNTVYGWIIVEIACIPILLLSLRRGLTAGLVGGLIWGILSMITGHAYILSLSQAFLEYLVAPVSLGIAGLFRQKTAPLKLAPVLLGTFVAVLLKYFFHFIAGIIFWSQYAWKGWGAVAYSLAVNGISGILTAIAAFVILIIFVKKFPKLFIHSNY
Nature of the test: Intrinsic-Fluorescence Titration. As for the experimental part:
Purified ThiT was diluted in buffer E to a concentration of ~50 nM in a final volume of 800 µL. The substrates were added in 1 µL steps. Using an excitation wavelength of 280 nm, emission was measured at 350 nm and 25 °C. After each addition of substrate, 10 s were allowed for equilibration and mixing, and the signals were averaged over 15 s.
In turn, `Cc1ncc(Cc2cccc(CO)c2)c(N)n1` [(3-((4-Amino-2-methylpyrimidin-5-yl)methyl)phenyl)methanol (6)] gave an equilibrium dissociation constant (Kd) of 528 nM. Molecule `Cc1ncc(Cc2csc(CCO)c2C)c(N)n1` [3-Deazathiamine] returned a Kd of 4.23 nM. As for `Cc1ncc(Cc2csc(C=O)c2C)c(N)n1` [4-((4-Amino-2-methylpyrimidin-5-yl)methyl)-3-methylthiophene-2-carbaldehyde (9)], the figure is 7.44 nM. The result for `Cc1ncc(Cc2cccc(CCO)c2)c(N)n1` [2-(3-((4-Amino-2-methylpyrimidin-5-yl)methyl)phenyl)ethanol (8)] reads 266 nM; that for `Cc1ncc(Cc2csc(CO)c2C)c(N)n1` [(4-((4-Amino-2-methylpyrimidin-5-yl)methyl)-3-methylthiophen-2-yl)methanol (7)], 5.21 nM.
